Measured values: patent publication US8071629B2, “2-pyridinylcycloalkylcarboxamide derivatives as fungicides” (Bayer Cropscience AG, priority 2005, dated 2011)

Test system: Sphaerotheca fuliginea
Experiment: In vivo test on Sphaerotheca fuliginea (powdery mildew)
Settings: gherkin plants, preventive spray 24 h before contamination, dose 600 g/ha, grading 13 days after contamination vs control plants
Method: The active ingredients tested are prepared by homogenization in a mixture of DMSO (dimethylsulfoxide)/acetone/tween/water. This suspension is then diluted with water to obtain the desired active material concentration.
Gherkin plants (Vert petit de Paris variety) in starter cups, sown on a 50/50 peat soil-pozzolana substrate and grown at 20° C./23° C., are treated at cotyledons stage by spraying with the aqueous suspension described above. Plants, used as controls, are treated with an aqueous solution not containing the active material.
After 24 hours, the plants are contaminated by spraying them with an aqueous suspension of Sphaerotheca fuliginea spores (100 000 spores per ml). The spores are collected from a contaminated plants. The contaminated gerkhin plants are incubated at about 20° C./25° C. and at 60/70% relative humidity.
Grading (% of efficacy) is carried out 13 days after the contamination, in comparison with the control plants.

SMILES: Cn1cc(C(=O)N[C@@H]2CCCC[C@@H]2c2ncc(Cl)cc2Cl)c(C(F)F)n1 (relative stereo) [Compound A-2, N-{2-[3,5-dichloro-2-pyridinyl]cis-cyclohexyl}1-methyl-3-(difluoromethyl)-1H-pyrazole-4-carboxamide]
- protection, % of efficacy (good, at least 70%): at least 70%
